# Measured values taken from ChEMBL document CHEMBL6114990, “Design, synthesis, and biological evaluation of quinazolinone-dihydropyrimidinone as a potential anti-diabetic agent via GLUT4 translocation stimulation” (Eur J Med Chem, 2025).
# Activity calls are given as the source filed them. The calls are words filed in the database; no cut-off is given here.
# Assays:
# [1] = molecular target: T1, Solute carrier family 2, facilitated glucose transporter member 4 (Rattus norvegicus) (UniProt P19357); test: Induction of GLUT4 translocation in rat L6-GLUT4myc skeletal muscle cells assessed as translocation to cell surface by measuring fold stimulation at 10 uM measured after 16 hrs by antibody-coupled colorimetric assay; assay type: cell-based; conditions: filed as activator
# T1 sequence (whole entry): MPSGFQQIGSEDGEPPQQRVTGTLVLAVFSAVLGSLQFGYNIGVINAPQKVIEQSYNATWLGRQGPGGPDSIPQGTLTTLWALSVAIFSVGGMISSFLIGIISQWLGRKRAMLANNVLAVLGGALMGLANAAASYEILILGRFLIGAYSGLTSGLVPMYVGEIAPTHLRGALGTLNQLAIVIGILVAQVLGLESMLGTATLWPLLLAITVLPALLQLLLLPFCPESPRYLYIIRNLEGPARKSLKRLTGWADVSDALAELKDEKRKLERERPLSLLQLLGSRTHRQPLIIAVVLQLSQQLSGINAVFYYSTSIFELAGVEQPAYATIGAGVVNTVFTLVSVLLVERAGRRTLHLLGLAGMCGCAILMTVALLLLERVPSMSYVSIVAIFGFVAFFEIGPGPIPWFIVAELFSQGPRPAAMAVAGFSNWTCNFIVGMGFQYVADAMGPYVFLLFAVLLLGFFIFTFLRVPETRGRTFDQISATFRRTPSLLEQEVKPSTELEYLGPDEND
# [2] = molecular target: T1, Solute carrier family 2, facilitated glucose transporter member 4 (Rattus norvegicus); test: Induction of GLUT4 translocation in rat L6-GLUT4myc skeletal muscle cells assessed as translocation to cell surface measured after 16 hrs by antibody-coupled colorimetric assay; assay type: cell-based; conditions: filed as activator, dose 5-25 µM
# [3] = molecular target: T1, Solute carrier family 2, facilitated glucose transporter member 4 (Rattus norvegicus); test: Induction of GLUT4 translocation in rat L6-GLUT4myc skeletal muscle cells assessed as translocation to cell surface by measuring fold stimulation at 500 uM measured after 16 hrs by antibody-coupled colorimetric assay; assay type: cell-based; conditions: filed as activator
# [4] = tested on: Rattus norvegicus; test: Anti-hyperglycemic activity against STZ-induced diabetic Sprague-Dawley rat model assessed as reduction in blood glucose level at 300 mg/kg, po measured after 5 hrs relative to control; assay type: functional; set-up: scale not given: the % may be the effect or the level left
# [5] = molecular target: T1, Solute carrier family 2, facilitated glucose transporter member 4 (Rattus norvegicus); test: (§1) Induction of insulin-induced GLUT4 translocation in rat L6-GLUT4myc skeletal muscle cells assessed as translocation to cell surface at 10 uM measured after 16 hrs incubation (final 3 hrs under serum starved medium) followed by stimulated with 100 nM insulin for 20 mins by antibody-coupled colorimetric assay; assay type: cell-based; conditions: filed as activator, time 980.0 min
# [6] = molecular target: T1, Solute carrier family 2, facilitated glucose transporter member 4 (Rattus norvegicus); test: as §1, with “mins in presence of wortmannin PI3 Kinase inhibitor” for “mins”; assay type: cell-based; conditions: time 980.0 min
# [7] = tested on: L6-GLUT4myc; test: Induction of AKT phosphorylation at Ser 473 residue in rat L6-GLUT4myc skeletal muscle cells at 10 uM measured after 16 hrs by Western blot analysis; assay type: cell-based
# [8] = molecular target: 5'-AMP-activated protein kinase catalytic subunit alpha-1 (Rattus norvegicus) (UniProt P54645); test: Activation of AMPKalpha in rat L6-GLUT4myc cells assessed as induction of AMPKalpha phosphorylation at Thr172 residue at 10 uM measured for 16 hrs by Western blot analysis; assay type: cell-based; conditions: filed as activator
# 5'-AMP-activated protein kinase catalytic subunit alpha-1 (Rattus norvegicus), sequence (P54645 whole entry): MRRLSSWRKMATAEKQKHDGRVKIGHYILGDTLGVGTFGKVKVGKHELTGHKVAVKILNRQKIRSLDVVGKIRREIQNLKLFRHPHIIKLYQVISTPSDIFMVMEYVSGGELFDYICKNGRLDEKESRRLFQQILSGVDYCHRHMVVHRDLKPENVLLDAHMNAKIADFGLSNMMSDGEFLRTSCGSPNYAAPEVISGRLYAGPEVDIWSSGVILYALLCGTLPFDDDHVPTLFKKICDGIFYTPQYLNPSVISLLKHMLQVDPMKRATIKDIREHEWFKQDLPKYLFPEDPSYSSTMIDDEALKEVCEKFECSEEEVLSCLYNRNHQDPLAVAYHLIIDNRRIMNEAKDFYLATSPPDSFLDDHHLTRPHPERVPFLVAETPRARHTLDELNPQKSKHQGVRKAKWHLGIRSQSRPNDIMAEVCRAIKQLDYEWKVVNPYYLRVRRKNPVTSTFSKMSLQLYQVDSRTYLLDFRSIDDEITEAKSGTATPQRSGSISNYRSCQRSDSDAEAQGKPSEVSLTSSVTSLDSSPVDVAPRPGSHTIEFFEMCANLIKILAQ
# [9] = tested on: L6-GLUT4myc; test: Effect on GLUT4 expression in rat L6-GLUT4myc cells at 10 uM incubated for 16 hrs by qRT-PCR analysis; assay type: functional, cell-based
# [10] = tested on: L6-GLUT4myc; test: Effect on IRS1 expression in rat L6-GLUT4myc cells at 10 uM incubated for 16 hrs by qRT-PCR analysis; assay type: functional, cell-based
# [11] = tested on: L6-GLUT4myc; test: Effect on AKT2 expression in rat L6-GLUT4myc cells at 10 uM incubated for 16 hrs by qRT-PCR analysis; assay type: functional, cell-based
# [12] = tested on: Rattus norvegicus; test: Anti-hyperglycemic activity against STZ-induced diabetic Sprague-Dawley rat model assessed as reduction in blood glucose level at 100 mg/kg, po measured after 5 hrs relative to control; assay type: functional; set-up: scale not given: the % may be the effect or the level left
# [13] = Stability of compound in simulated physiological fluid at pH 7.4 assessed as parent compound remaining measured after 120 mins by LC-MS/MS analysis; assay type: physicochemical; conditions: read-out: Stability
# [14] = Stability of compound in simulated gastric fluid at pH 1.2 assessed as parent compound remaining measured after 120 mins by LC-MS/MS analysis; assay type: physicochemical; conditions: read-out: Stability
# [15] = Stability of compound in simulated intestinal fluid at pH 6.8 assessed as parent compound remaining measured after 120 mins by LC-MS/MS analysis; assay type: physicochemical; conditions: read-out: Stability
# [16] = Thermodynamic solubility of compound in distilled water measured for 24 hrs by HPLC analysis; assay type: physicochemical; conditions: read-out: Therm_solubility
# [17] = Thermodynamic solubility of compound in HCL buffer at pH 1.2 measured for 24 hrs by HPLC analysis; assay type: physicochemical; conditions: read-out: Therm_solubility
# [18] = Thermodynamic solubility of compound in tris buffer at pH 7.4 measured for 24 hrs by HPLC analysis; assay type: physicochemical; conditions: read-out: Therm_solubility
# [19] = Metabolic stability in rat liver microsome assessed as half life measured upto 60 mins by HPLC analysis; assay type: ADME; conditions: microsomes, 1 h
# [20] = Metabolic stability in rat liver microsome assessed as intrinsic clearance measured upto 60 mins by HPLC analysis; assay type: ADME; conditions: microsomes, 1 h
Compound,fold change (FC) [1],also measured
CC1=C(C(=O)Nc2cccc(-c3nc4ccccc4c(=O)n3C)c2)C(c2ccco2)NC(=O)N1 (stereo not given),1.1,
COc1ccc(C2NC(=O)NC(C)=C2C(=O)Nc2cccc(-c3nc4ccccc4c(=O)n3C)c2)cc1OC (stereo not given),1.02,
CC1=C(C(=O)Nc2ccc(-c3nc4ccccc4c(=O)n3C)cc2)C(c2ccc(C(F)(F)F)cc2)NC(=O)N1 (stereo not given),1.54,
CC1=C(C(=O)Nc2ccc(-c3nc4ccccc4c(=O)n3C)cc2)C(c2ccc(C#N)cc2)NC(=O)N1 (stereo not given),1.1,
CC1=C(C(=O)Nc2cccc(-c3nc4ccccc4c(=O)n3C)c2)C(c2ccc(Cl)cc2Cl)NC(=O)N1 (stereo not given),1.14,
CCn1c(-c2ccc(NC(=O)C3=C(C)NC(=O)NC3c3ccc(Cl)cc3)cc2)nc2ccccc2c1=O (stereo not given),1.7,
CCn1c(-c2ccc(NC(=O)C3=C(C)NC(=O)NC3c3ccsc3)cc2)nc2ccccc2c1=O (stereo not given),1.29,
CC1=C(C(=O)Nc2ccc(-c3nc4ccccc4c(=O)n3C)cc2)C(c2cccc(Cl)c2)NC(=O)N1 (stereo not given),1.92,Activity [2]: Dose-dependent-effect
CC1=C(C(=O)Nc2ccc(-c3nc4ccccc4c(=O)n3C)cc2)C(c2ccc(F)cc2)NC(=O)N1 (stereo not given),1.27,
CN(C)C(=N)NC(=N)N [METFORMIN],,fold change (FC) [3]: 1.65; Activity [4]: 64.7%
CC1=C(C(=O)Nc2ccc(-c3nc4ccccc4c(=O)n3C)cc2)C(c2scnc2C)NC(=O)N1 (stereo not given),1.05,
CC1=C(C(=O)Nc2ccc(-c3nc4ccccc4c(=O)n3C)cc2)C(c2ccccc2Cl)NC(=O)N1 (stereo not given),1.51,
CCn1c(-c2ccc(NC(=O)C3=C(C)NC(=O)NC3c3ccccc3)cc2)nc2ccccc2c1=O (stereo not given),1.32,
CC1=C(C(=O)Nc2ccc(-c3nc4ccccc4c(=O)n3C)cc2)C(c2ccc(Cl)cc2)NC(=O)N1 (stereo not given),1.7,
CC1=C(C(=O)Nc2ccc(-c3nc4ccccc4c(=O)n3C)cc2)C(c2ccc(Cl)cc2Cl)NC(=O)N1 (stereo not given),2.52,Activity [2]: Dose-dependent-effect; Activity [5]: Active; Activity [6]: inactive; Activity [7]: No effect; Activity [8]: Active; Activity [9]: No effect; Activity [10]: No effect; Activity [11]: No effect; Activity [12]: ~39.5%; remaining at 2 h [13]: ≥ 60%; remaining at 2 h [14]: ≥ 60%; remaining at 2 h [15]: ≥ 60%; solubility thermodynamic at 24 h [16]: 0.36 µg/mL; solubility thermodynamic at 24 h [17]: 23.8 µg/mL; solubility thermodynamic at 24 h [18]: 0.25 µg/mL; t1/2 [19]: 3.16 min; CLH [20]: 1.336 µL/min/mg
CC1=C(C(=O)Nc2cccc(-c3nc4ccccc4c(=O)n3C)c2)C(c2ccc([N+](=O)[O-])cc2)NC(=O)N1 (stereo not given),1,

Compound,fold change (FC) [1],also measured
COc1ccc(C2NC(=O)NC(C)=C2C(=O)Nc2ccc(-c3nc4ccccc4c(=O)n3C)cc2)cc1 (stereo not given),1.28,
CC1=C(C(=O)Nc2ccc(-c3nc4ccccc4c(=O)n3C)cc2)C(CC(C)C)NC(=O)N1 (stereo not given),1.14,
CC1=C(C(=O)Nc2ccc(-c3nc4ccccc4c(=O)n3C)cc2)C(c2ccc(N(C)C)cc2)NC(=O)N1 (stereo not given),1.08,
CC1=C(C(=O)Nc2cccc(-c3nc4ccccc4c(=O)n3C)c2)C(c2ccc(Cl)cc2)NC(=O)N1 (stereo not given),1.17,
COc1ccc(C2NC(=O)NC(C)=C2C(=O)Nc2ccc(-c3nc4ccccc4c(=O)n3C)cc2)cc1OC (stereo not given),1.01,
CC1=C(C(=O)Nc2cccc(-c3nc4ccccc4c(=O)n3C)c2)C(c2ccc(F)cc2)NC(=O)N1 (stereo not given),1.13,
CC1=C(C(=O)Nc2ccc(-c3nc4ccccc4c(=O)n3C)cc2)C(c2ccc([N+](=O)[O-])cc2)NC(=O)N1 (stereo not given),1.21,
CCn1c(-c2ccc(NC(=O)C3=C(C)NC(=O)NC3c3scnc3C)cc2)nc2ccccc2c1=O (stereo not given),1.31,
CC1=C(C(=O)Nc2ccc(-c3nc4ccccc4c(=O)n3C)cc2)C(c2cccs2)NC(=O)N1 (stereo not given),1.27,
CC1=C(C(=O)Nc2ccc(-c3nc4ccccc4c(=O)n3C)cc2)C(c2ccco2)NC(=O)N1 (stereo not given),1.11,
CC(=O)CC(=O)Nc1ccc(-c2nc3ccccc3c(=O)n2C)cc1,1.24,
CCn1c(-c2ccc(NC(=O)C3=C(C)NC(=O)NC3c3ccco3)cc2)nc2ccccc2c1=O (stereo not given),1.32,
CC1=C(C(=O)Nc2cccc(-c3nc4ccccc4c(=O)n3C)c2)C(c2cccs2)NC(=O)N1 (stereo not given),1.16,
CC1=C(C(=O)Nc2ccc(-c3nc4cccc(Cl)c4c(=O)n3C)cc2)C(c2ccc(Cl)cc2Cl)NC(=O)N1 (stereo not given),1.15,
CC1=C(C(=O)Nc2ccc(-c3nc4ccccc4c(=O)n3C)cc2)C(c2ccc(Cl)c(Cl)c2)NC(=O)N1 (stereo not given),1.63,
